Eight molecules from ChEMBL document CHEMBL1147084, “From the Cover: Antipsychotic drug-induced weight gain mediated by histamine H1 receptor-linked activation of hypothalamic AMP-kinase” (Proc Natl Acad Sci U S A, 2007) can be followed below.

Experiment [1] concerns Hypothalamus. The experiment is described as follows: Increase in phospho-AMPK levels in H1RKO mouse hyphalamic slices at 500 nM after 30 mins by Western blotting. The format is functional, tissue-based. In general terms: In western blotting, separated proteins are transferred to a membrane and probed.
The species named for experiment [2] is Mus musculus. The experiment is described as follows: Orexigenic activity in H1RKO mouse. The format is functional, organism-based.
Experiment [3] has as its target T1, Leptin receptor (Homo sapiens) (UniProt P48357).
T1 sequence (whole entry): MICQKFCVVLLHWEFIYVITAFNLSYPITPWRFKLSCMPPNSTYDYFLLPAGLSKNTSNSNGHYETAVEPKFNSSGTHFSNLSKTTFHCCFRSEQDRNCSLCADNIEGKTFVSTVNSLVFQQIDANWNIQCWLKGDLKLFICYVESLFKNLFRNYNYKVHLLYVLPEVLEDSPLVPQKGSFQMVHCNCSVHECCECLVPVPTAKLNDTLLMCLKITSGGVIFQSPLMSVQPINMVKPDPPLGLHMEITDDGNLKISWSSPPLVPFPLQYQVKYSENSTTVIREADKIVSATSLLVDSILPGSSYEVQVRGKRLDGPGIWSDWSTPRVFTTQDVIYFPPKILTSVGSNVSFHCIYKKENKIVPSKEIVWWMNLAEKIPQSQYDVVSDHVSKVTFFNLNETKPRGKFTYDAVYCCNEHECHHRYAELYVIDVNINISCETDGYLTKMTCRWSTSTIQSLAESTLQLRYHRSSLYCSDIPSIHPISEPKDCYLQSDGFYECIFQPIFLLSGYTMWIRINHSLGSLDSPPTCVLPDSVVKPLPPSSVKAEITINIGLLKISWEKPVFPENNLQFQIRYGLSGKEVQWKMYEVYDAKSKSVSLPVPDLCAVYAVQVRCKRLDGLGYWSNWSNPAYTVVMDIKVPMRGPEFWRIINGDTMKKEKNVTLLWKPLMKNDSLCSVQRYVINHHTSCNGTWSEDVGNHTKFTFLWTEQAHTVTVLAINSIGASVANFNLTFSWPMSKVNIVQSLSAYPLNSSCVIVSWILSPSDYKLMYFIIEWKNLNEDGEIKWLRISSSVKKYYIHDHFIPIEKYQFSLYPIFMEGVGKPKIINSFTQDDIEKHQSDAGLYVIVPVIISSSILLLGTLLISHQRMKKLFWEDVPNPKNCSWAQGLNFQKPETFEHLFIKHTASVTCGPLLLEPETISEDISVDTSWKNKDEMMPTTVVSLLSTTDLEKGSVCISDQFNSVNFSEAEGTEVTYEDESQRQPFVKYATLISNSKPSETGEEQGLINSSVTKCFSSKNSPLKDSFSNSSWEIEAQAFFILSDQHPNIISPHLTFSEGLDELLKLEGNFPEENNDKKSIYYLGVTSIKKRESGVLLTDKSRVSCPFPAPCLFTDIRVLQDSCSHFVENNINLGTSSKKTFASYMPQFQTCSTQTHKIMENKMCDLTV
The experiment is described as follows: Binding affinity to leptin receptor at 10 nM.

Experiment [4] deals with T1, Leptin receptor (Homo sapiens). The experiment is described as follows: Binding affinity to leptin receptor at 100 nM.
The nature of experiment [5]: Binding affinity to alphaMSH receptor at 10 nM.
Experiment [6] in a line: Binding affinity to alphaMSH receptor at 100 nM.
For experiment [7], the target named is T2, Neuropeptide Y receptor type 1 (Homo sapiens) (UniProt P25929).
T2 sequence (whole entry): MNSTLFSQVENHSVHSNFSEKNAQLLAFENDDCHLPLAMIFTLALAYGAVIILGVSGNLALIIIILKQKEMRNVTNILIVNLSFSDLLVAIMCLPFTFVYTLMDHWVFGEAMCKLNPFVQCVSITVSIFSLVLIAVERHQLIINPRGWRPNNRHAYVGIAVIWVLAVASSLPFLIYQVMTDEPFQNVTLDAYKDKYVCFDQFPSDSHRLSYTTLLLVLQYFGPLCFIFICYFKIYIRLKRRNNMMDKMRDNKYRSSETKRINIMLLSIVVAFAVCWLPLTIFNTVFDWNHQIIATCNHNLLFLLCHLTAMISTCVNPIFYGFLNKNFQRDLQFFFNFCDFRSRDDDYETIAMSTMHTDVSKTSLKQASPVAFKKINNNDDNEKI
The experiment is described as follows: Binding affinity to neuropeptide Y receptor at 10 nM.

Experiment [8] has as its target T2, Neuropeptide Y receptor type 1 (Homo sapiens). The experiment is described as follows: Binding affinity to neuropeptide Y receptor at 100 nM.
Experiment [9] deals with Mus musculus. The experiment is described as follows: Increase in phospho-AMPK levels in intact H1RKO mouse hypothalamus at 3 mg/kg, ip after 3 hrs by Western blotting. More on the design: dose 3 mg/kg. The format is functional, organism-based.
The subject of experiment [10] is Mus musculus. The experiment is described as follows: Increase in phospho-AMPK level in paraventricular hyphalamic nuclei intact H1RKO mouse at 3 mg/kg, ip after 3 hrs by immunohistochemistry. Type of experiment: functional, organism-based. More on the design: dose 3 mg/kg.
Experiment [11] deals with Histamine H1 receptor (Rattus norvegicus, UniProt P31390). The experiment is described as follows: biochemical.
Histamine H1 receptor, sequence (P31390 whole entry): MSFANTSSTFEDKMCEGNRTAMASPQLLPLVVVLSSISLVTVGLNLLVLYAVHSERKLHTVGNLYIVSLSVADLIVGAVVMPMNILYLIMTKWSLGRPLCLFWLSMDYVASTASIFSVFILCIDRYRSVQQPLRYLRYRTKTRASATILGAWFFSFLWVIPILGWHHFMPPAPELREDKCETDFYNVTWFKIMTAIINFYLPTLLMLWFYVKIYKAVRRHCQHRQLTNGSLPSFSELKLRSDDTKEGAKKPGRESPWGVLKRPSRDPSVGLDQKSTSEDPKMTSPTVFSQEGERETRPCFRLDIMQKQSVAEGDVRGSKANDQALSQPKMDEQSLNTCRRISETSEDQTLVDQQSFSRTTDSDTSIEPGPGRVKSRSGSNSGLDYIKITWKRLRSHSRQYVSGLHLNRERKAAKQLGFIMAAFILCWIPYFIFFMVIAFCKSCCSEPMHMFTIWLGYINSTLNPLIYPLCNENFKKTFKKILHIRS
Description: Displacement of [3H]mepyramine from H1R in rat brain
For experiment [12], the system named is Mus musculus. The experiment is described as follows: Increase in alpha-2AMPK levels in intact H1RKO mouse cerebellum at 1 mg/kg after 3 hrs. The format is functional, organism-based. More on the design: dose 1 mg/kg.
For experiment [13], the species on record is Mus musculus. The experiment is described as follows: Reversal of leptin-induced reduction in hyphalamic phospho-AMPK level in H1RKO mouse at 50 nM after 30 mins by Western blotting. The format is functional, organism-based.
The species named for experiment [14] is Mus musculus. The experiment is described as follows: Reversal of insulin-induced reduction in hyphalamic phospho-AMPK level in H1RKO mouse at 50 nM after 30 mins by Western blotting. The format is functional, organism-based.
The species entered for experiment [15] is Mus musculus. The experiment is described as follows: Reversal of histamine-induced reduction in hyphalamic phospho-AMPK level in H1RKO mouse at 200 nM after 30 mins by Western blotting. The format is functional, organism-based.
The test system of experiment [16] is Mus musculus. The experiment is described as follows: Increase in phospho-AMPK in H1R knockout mouse at 3 mg/kg by immunohistochemistry. The format is functional, organism-based. More on the design: dose 3 mg/kg.
Experiment [17] concerns Mus musculus. The experiment is described as follows: Increase in alpha-2AMPK levels in intact H1RKO mouse cerebral cortex at 1 mg/kg after 3 hrs. Type of experiment: functional, organism-based. More on the design: dose 1 mg/kg.
Experiment [18] concerns Mus musculus. The experiment is described as follows: Increase in phospho-AMPK level in arcuate hyphalamic nuclei intact H1RKO mouse at 1 mg/kg after 3 hrs by immunohistochemistry. The format is functional, organism-based. More on the design: dose 1 mg/kg.
Experiment [19] concerns Mus musculus. The experiment is described as follows: Increase in phospho-AMPK level in arcuate hyphalamic nuclei intact H1RKO mouse at 5 mg/kg after 3 hrs by immunohistochemistry. Type of experiment: functional, organism-based. More on the design: dose 5 mg/kg.
In experiment [20] the test system is Mus musculus. The experiment is described as follows: Increase in phospho-AMPK levels in intact H1RKO mouse hypothalamus at 1 mg/kg after 3 hrs. More on the design: dose 1 mg/kg. Type of experiment: functional, organism-based.
The subject of experiment [21] is Mus musculus. The experiment is described as follows: Increase in alpha-2AMPK levels in intact H1RKO mouse hypothalamus at 1 mg/kg after 3 hrs. Type of experiment: functional, organism-based. More on the design: dose 1 mg/kg.
The subject of experiment [22] is Mus musculus. The experiment is described as follows: Increase in phospho-AMPK levels in intact H1RKO mouse cerebellum at 1 mg/kg, ip after 3 hrs by Western blotting. More on the design: dose 1 mg/kg. The format is functional, organism-based.
Experiment [23] has as its system Mus musculus. The experiment is described as follows: Increase in phospho-AMPK levels in intact H1RKO mouse liver at 1 mg/kg, ip after 3 hrs by Western blotting. More on the design: dose 1 mg/kg. Type of experiment: functional, organism-based.
The subject of experiment [24] is Mus musculus. The experiment is described as follows: Increase in cortical alpha-2AMPK levels in intact H1RKO mouse at 5 mg/kg after 3 hrs. Type of experiment: functional.
Experiment [25] relates to Mus musculus. The experiment is described as follows: Increase in alpha-2AMPK levels in intact H1RKO mouse cerebellum at 5 mg/kg after 3 hrs. The format is functional, organism-based. More on the design: dose 5 mg/kg.
Experiment [26] concerns Mus musculus. The experiment is described as follows: Reversal of leptin-induced reduction in hyphalamic phospho-AMPK in H1RKO mouse at 5 mg/kg after 3 hrs by Western blotting. More on the design: dose 5 mg/kg. The format is functional, organism-based.
The subject of experiment [27] is Mus musculus. The experiment is described as follows: Reversal of leptin-induced reduction in hyphalamic alpha-2AMPK activity in H1RKO mouse at 5 mg/kg. The format is functional, organism-based. More on the design: dose 5 mg/kg.
Experiment [28] relates to Mus musculus. The experiment is described as follows: Increase in phospho-AMPK level in paraventricular hyphalamic nuclei intact H1RKO mouse at 1 mg/kg after 3 hrs by immunohistochemistry. Type of experiment: functional, organism-based. More on the design: dose 1 mg/kg.
Experiment [29] concerns Mus musculus. The experiment is described as follows: Increase in phospho-AMPK level in paraventricular hyphalamic nuclei intact H1RKO mouse at 5 mg/kg after 3 hrs by immunohistochemistry. More on the design: dose 5 mg/kg. The format is functional, organism-based.

The source made the active and inactive calls. The calls are words filed in the database; no cut-off is given here.

`Cc1cc2c(s1)Nc1ccccc1N=C2N1CCN(C)CC1`: the result in experiment [1] and in experiment [2] was Active. Further, the result in experiment [3], in experiment [4], in [5], in experiment [6], in experiment [7] and in [8] was inactive.
In the case of `Cc1ccc(/C(=C\CN2CCCC2)c2ccccn2)cc1`, the result in experiment [9] and in experiment [1] was Active.
In the case of `Cc1nc2n(c(=O)c1CCN1CCC(c3noc4cc(F)ccc34)CC1)CCCC2`, in [1], the outcome was inactive.
`O=C(CCCN1CCC(O)(c2ccc(Cl)cc2)CC1)c1ccc(F)cc1`: the outcome in experiment [1] and in experiment [2] was inactive.
As for `O=C1Cc2cc(CCN3CCN(c4nsc5ccccc45)CC3)c(Cl)cc2N1`, the outcome in experiment [1], in experiment [2] and in [10] was inactive.
In the case of `OCCOCCN1CCN(C2=Nc3ccccc3Sc3ccccc32)CC1`, the result in experiment [1] and in [2] was Active.
In general, IC50 refers to the concentration needed to halve the response being measured. Take `O=C1CCc2ccc(OCCCCN3CCN(c4cccc(Cl)c4Cl)CC3)cc2N1` [ARIPIPRAZOLE]: the result in experiment [1] and in experiment [2] was inactive. Also, the IC50 in [11] was more than 3 µM.
Take `CN1CCN(C2=Nc3cc(Cl)ccc3Nc3ccccc32)CC1` [CLOZAPINE]: the outcome in [12], in experiment [16], in [17], in experiment [22], in experiment [23] and in experiment [25] was inactive. In addition, the result in [3], in experiment [4], in [5], in [6], in [7] and in [8] was inactive. For the same molecule, the outcome in experiment [13], in experiment [14], in experiment [15], in [18], in [19] and in [1] was Active. Moreover, the result in experiment [2], in experiment [20], in experiment [21], in experiment [26], in experiment [27] and in experiment [28] was Active. For the same molecule, the result in experiment [29] was Active. The molecule further gave an Activity in experiment [24] of 20%.
